# Source: US11053204B2, “Pyrimidinyloxy benzene derivatives as herbicides” (FMC Corporation, priority 2015, dated 2021)
# Tests used:
# Assay type in all cases: in vivo
# soybean (Glycine max) = assay: Test C preemergence, plant response rating; conditions: Preemergence
# Method in brief: (§1)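 Pre-emergence: seeds sown in loam soil–sand blend or silt loam and sprayed with test chemicals in a non-phytotoxic solvent mixture with surfactant. Post-emergence: plants 2 to 18 cm (1- to 4-leaf stage) in peat-based potting medium, same formulation. Greenhouse 13 to 15 d; visual rating 0 (no effect) to 100 (complete control) versus controls.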
# [1] = tested on: oilseed rape (Brassica napus); assay: Test C preemergence, plant response rating; conditions: Preemergence
# Method in brief: as §1
# [2] = tested on: foxtail, giant (giant foxtail, Setaria faberii); assay: Test C preemergence, plant response rating; conditions: Preemergence
# Method in brief: as §1
# [3] = tested on: ryegrass, Italian (Italian ryegrass, Lolium multiflorum); assay: Test C preemergence, plant response rating; conditions: Preemergence
# Method in brief: as §1
# [4] = tested on: blackgrass (Alopecurus myosuroides); assay: Test C preemergence, plant response rating; conditions: Preemergence
# Method in brief: as §1
# [5] = tested on: ragweed (common ragweed, Ambrosia elatior); assay: Test C preemergence, plant response rating; conditions: Preemergence
# Method in brief: as §1
# [6] = tested on: crabgrass, large (large crabgrass, Digitaria sanguinalis); assay: Test C preemergence, plant response rating; conditions: Preemergence
# Method in brief: as §1
# corn (Zea mays) = assay: Test C preemergence, plant response rating; conditions: Preemergence
# Method in brief: as §1
# kochia (Kochia scoparia) = assay: Test A preemergence, visual injury rating
# Method in brief: (§2)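 Scoring: eye-based comparison with untreated controls, 0 for no effect through 100 for complete control, at about day 10. Treatments: directed soil spray preemergence; foliar spray postemergence on 2–10 cm plants at the one- to two-leaf stage. Medium: loam soil with sand.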
# [7] = tested on: giant foxtail (Setaria faberii); assay: Test A preemergence, visual injury rating
# Method in brief: as §2
# [8] = tested on: Italian ryegrass (Lolium multiflorum); assay: Test A preemergence, visual injury rating
# Method in brief: as §2
# [9] = tested on: ragweed (common ragweed, Ambrosia elatior); assay: Test A preemergence, visual injury rating
# Method in brief: as §2
# [10] = tested on: barnyardgrass (Echinochloa crus-galli); assay: Test A preemergence, visual injury rating
# Method in brief: as §2
# [11] = tested on: pigweed (Amaranthus retroflexus); assay: Test A preemergence, visual injury rating
# Method in brief: as §2
# [12] = tested on: ducksalad (Heteranthera limosa); assay: Test B flooded paddy test, plant response rating; conditions: 250 g ai/ha; Flood; scale of 0 to 100 where 0 is no effect and 100 is complete control; 13 to 15 days
# Method in brief: (§3)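 In-water treatment: compound dosed into 3 cm flood over soil, water level unchanged throughout. Controls run alongside; visual assessment at day 13–15.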
# rice (Oryza sativa) = assay: Test B flooded paddy test, plant response rating; conditions: 250 g ai/ha; Flood; scale of 0 to 100 where 0 is no effect and 100 is complete control; 13 to 15 days
# Method in brief: as §3
# [13] = tested on: barnyardgrass (Echinochloa crus-galli); assay: Test B flooded paddy test, plant response rating; conditions: 250 g ai/ha; Flood; scale of 0 to 100 where 0 is no effect and 100 is complete control; 13 to 15 days
# Method in brief: as §3
# [14] = tested on: sedge, umbrella (small-flower umbrella sedge, Cyperus difformis); assay: Test B flooded paddy test, plant response rating; conditions: 250 g ai/ha; Flood; scale of 0 to 100 where 0 is no effect and 100 is complete control; 13 to 15 days
# Method in brief: as §3
# [15] = 31 g ai/ha, 0 to 100 scale, 0 no effect, 100 complete control
# [16] = 125 g ai/ha, 0 to 100 scale (0 no effect, 100 complete control)
compound,measurement,setting,value
N#CC(CCCC(F)(F)F)c1ccccc1Oc1ncc(Cl)cn1 (stereo not shown) [Compound 144],"Plant response rating, Soybean","soybean (Glycine max); 125 g ai/ha, scale of 0 to 100",60
same,"Plant response rating, Soybean","soybean (Glycine max); 31 g ai/ha, scale 0 to 100",0
same,"Plant response rating, Soybean","soybean (Glycine max); 62 g ai/ha, scale 0 to 100",30
same,"Plant response rating, Oilseed Rape","[1]; 125 g ai/ha, scale of 0 to 100",90
same,"Plant response rating, Oilseed Rape","[1]; 31 g ai/ha, scale 0 to 100",0
same,"Plant response rating, Oilseed Rape","[1]; 62 g ai/ha, scale 0 to 100",5
same,"Plant response rating, Foxtail, Giant","[2]; 125 g ai/ha, scale of 0 to 100",100
same,"Plant response rating, Foxtail, Giant","[2]; 31 g ai/ha, scale 0 to 100",85
same,"Plant response rating, Foxtail, Giant","[2]; 62 g ai/ha, scale 0 to 100",100
same,"Plant response rating, Ryegrass, Italian","[3]; 125 g ai/ha, scale of 0 to 100",60
same,"Plant response rating, Ryegrass, Italian","[3]; 31 g ai/ha, scale 0 to 100",0
same,"Plant response rating, Ryegrass, Italian","[3]; 62 g ai/ha, scale 0 to 100",0
same,"Plant response rating, Blackgrass","[4]; 125 g ai/ha, scale of 0 to 100",30
same,"Plant response rating, Blackgrass","[4]; 16 g ai/ha, scale 0 to 100",5
same,"Plant response rating, Blackgrass","[4]; 31 g ai/ha, scale 0 to 100",10
same,"Plant response rating, Blackgrass","[4]; 62 g ai/ha, scale 0 to 100",40
same,"Plant response rating, Ragweed","[5]; 125 g ai/ha, scale of 0 to 100",10
same,"Plant response rating, Ragweed","[5]; 31 g ai/ha, scale 0 to 100",0
same,"Plant response rating, Ragweed","[5]; 62 g ai/ha, scale 0 to 100",0
same,"Plant response rating, Crabgrass, Large","[6]; 125 g ai/ha, scale of 0 to 100",100
same,"Plant response rating, Crabgrass, Large","[6]; 16 g ai/ha, scale 0 to 100",85
same,"Plant response rating, Crabgrass, Large","[6]; 31 g ai/ha, scale 0 to 100",98
same,"Plant response rating, Crabgrass, Large","[6]; 62 g ai/ha, scale 0 to 100",100
same,"Plant response rating, Corn","corn (Zea mays); 125 g ai/ha, scale of 0 to 100",30
same,"Plant response rating, Corn","corn (Zea mays); 16 g ai/ha, scale 0 to 100",0
same,"Plant response rating, Corn","corn (Zea mays); 31 g ai/ha, scale 0 to 100",0
same,"Plant response rating, Corn","corn (Zea mays); 62 g ai/ha, scale 0 to 100",5
same,"Plant response rating, Kochia",kochia (Kochia scoparia); [15],90
same,"Plant response rating, Kochia",kochia (Kochia scoparia); [16],100
same,"Plant response rating, Foxtail, Giant",[7]; [15],100
same,"Plant response rating, Foxtail, Giant",[7]; [16],100
same,"Plant response rating, Ryegrass, Italian",[8]; [15],20
same,"Plant response rating, Ryegrass, Italian",[8]; [16],70
same,"Plant response rating, Ragweed",[9]; [15],0
same,"Plant response rating, Ragweed",[9]; [16],10
same,"Plant response rating, Barnyardgrass",[10]; [15],80
same,"Plant response rating, Barnyardgrass",[10]; [16],100
same,"Plant response rating, Pigweed",[11]; [15],100
same,"Plant response rating, Pigweed",[11]; [16],100
same,"Plant response rating, Ducksalad",[12],100
same,"Plant response rating, Rice",rice (Oryza sativa),35
same,"Plant response rating, Barnyardgrass",[13],70
same,"Plant response rating, Sedge, Umbrella",[14],100
